Assay results as given in patent US20050048508A1, “Trehalose receptor and method for detecting trehalose with the same” (KABUSHIKI KAISHA HAYASHIBARA SEIBUTSU KAGAKU KENKYUJO, priority 2002, published 2005).

Target: T1, T1R1 with G protein α-subunits (α15 and α16/Z chimeric protein) (Mus musculus, UniProt Q99PG6)
T1 construct: expressed in transfected cells; host or cells: 293 cells, RCB 1637 (human embryonic kidney)
T1 sequence (Q99PG6 20-842 L120P/N244D/D281A/N309Y/P311T/S314P/H418Y): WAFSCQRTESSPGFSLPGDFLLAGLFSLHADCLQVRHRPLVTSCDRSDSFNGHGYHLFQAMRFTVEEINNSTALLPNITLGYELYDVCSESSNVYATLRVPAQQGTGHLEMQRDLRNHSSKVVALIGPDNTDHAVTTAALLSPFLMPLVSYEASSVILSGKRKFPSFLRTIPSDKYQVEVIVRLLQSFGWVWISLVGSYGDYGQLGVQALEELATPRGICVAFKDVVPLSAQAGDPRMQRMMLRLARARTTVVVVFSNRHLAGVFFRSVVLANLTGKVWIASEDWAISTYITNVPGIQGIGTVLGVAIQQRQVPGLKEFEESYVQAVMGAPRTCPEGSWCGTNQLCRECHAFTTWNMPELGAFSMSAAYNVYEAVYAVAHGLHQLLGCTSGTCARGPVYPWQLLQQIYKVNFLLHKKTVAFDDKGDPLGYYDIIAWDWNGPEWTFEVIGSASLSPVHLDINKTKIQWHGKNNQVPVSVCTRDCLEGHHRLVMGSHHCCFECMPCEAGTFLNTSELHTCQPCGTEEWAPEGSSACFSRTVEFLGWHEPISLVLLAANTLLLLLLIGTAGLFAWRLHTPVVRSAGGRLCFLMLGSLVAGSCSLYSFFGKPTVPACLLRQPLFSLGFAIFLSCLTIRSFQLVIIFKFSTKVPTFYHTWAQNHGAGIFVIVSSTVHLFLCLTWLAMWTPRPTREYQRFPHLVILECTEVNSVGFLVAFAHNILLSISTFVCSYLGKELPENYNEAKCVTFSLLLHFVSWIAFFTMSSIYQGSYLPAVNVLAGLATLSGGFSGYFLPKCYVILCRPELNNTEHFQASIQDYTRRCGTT
Experiment: Intracellular calcium ion assay, 293 cells coexpressing G protein α-subunits and T1R1
Type: cell-based
Settings: 293 cells: T1R1 + G protein α-subunits; 0.67 ml of 1 M saccharide solution added to 2 ml cell suspension; FLUO-4 AM
Description: The coexpression vector for the G protein α-subunit α15 and the G protein α16/Z chimeric protein (hereinafter designated as “G protein α-subunits”) obtained in Example 1-3 was gene transferred to 293 cells, RCB 1637, a human embryonic kidney cell line, available from the Riken Bioresource Center, Ibaraki, Japan, by conventional lipofection. The gene transferred cells were suspended in Dulbecco's Modified Eagle's Medium (D-MEM) supplemented with 1 mg/L of “PUROMYCIN”, a trade mane of puromycin commercialized by Edge Biosystems, MD, USA, and 10% (v/v) of fetal calf serum to give a cell density of 2×10^6 cells/ml and cultured in a plastic petri dish for cell culture. […]
The captioned reactivity test was conducted according to a conventional intracellular calcium ion assay: 293 Cells prepared in Example 3, capable of coexpressing the G protein α-subunits and the sweet taste receptor(s), were cultured in a plastic petri dish for cell culture until reaching its confluent phase. […] Two milliliters of the resultant cell suspension was injected into a glass cuvette, commercialized by Hitachi, Ltd., Tokyo, Japan, and analyzed on “HITACHI 650-40”, a fluorescence spectrophotometer commercialized by Hitachi, Ltd., Tokyo, Japan. […]

Row | SMILES | Influx of calcium ion
1 | OC[C@H]1O[C@H](O[C@H]2O[C@H](CO)[C@@H](O)[C@H](O)[C@H]2O)[C@H](O)[C@@H](O)[C@@H]1O [Trehalose] | Negative
2 | OC[C@H]1O[C@@](CO)(O[C@H]2O[C@H](CO)[C@@H](O)[C@H](O)[C@H]2O)[C@@H](O)[C@@H]1O [Sucrose, reference compound] | Negative
